Experimental data published in patent US20180221352A1, “3-(1H-PYRROLO[2,3-C]PYRIDIN-2-YL)-1H-PYRAZOLO[3,4-B]PYRIDINES AND THERAPEUTIC USES THEREOF” (Samumed, LLC, priority 2015, published 2018).

How the values were obtained:
Type in all cases: cell-based
[1] = test system: primary human fibroblasts derived from IPF patients (LL29 cells); experiment: Inhibition of fibrotic process, αSMA staining in TGF-β1 treated fibroblasts; details: Fibroblast; for EC50: 96 h, LL29 cells, TGF-β1 20 ng/mL, 4 days, % αSMA positive cells; for inhibition at 10 µM: read-out: percent inhibition at 10 μM
Experimental: Representative compounds were screened using primary human fibroblasts (derived from IPF patients) treated with TGF-β1 to determine their ability to inhibit the fibrotic process.
LL29 cells are plated at 1,500 cells/well in 80 μL/well F12 medium supplemented with 1% Fetal Bovine Serum. […] Wells treated with TGF-31 and containing DMSO were used as controls. […] Following incubation for 4 days, SYTOX green nucleic acid stain (Life Technologies [Thermo Fisher Scientific]) was added to the wells at a final concentration of 1 μM and incubated at room temperature for 30 min.

SW480 colon cancer cells = experiment: Cell viability assay (CellTiter-Blue); details: Homo sapiens; for EC50: 96 h, SW480 cell viability, four days; for inhibition at 10 µM: SW480, 96 h, read-out: percent inhibition at 10 μM
Experimental: Representative compounds were screened using the following assay procedure to assess the effect on cell viability as described below.
Approximately 2×10^3 SW480 colon cancer cells were seeded into each well and allowed to incubate in the presence or absence of compound for four days at 37° C./5% CO2. Eight replicates of DMSO-treated cells served as controls and cells treated with compound were performed in duplicate.
After incubation, 20 μL of CellTiter-Blue (Promega) was added to each well allowed to incubate for approximately 3 hours. This reagent was a buffered solution which contains resazurin, metabolically active cells were able to reduce rezarurin (blue) into resorufin (pink) which was highly fluorescent. This measured fluorescence was used as a readout for cell viability.

[2] = test system: Wnt activity (Sp5-Luc reporter, SW480 colon carcinoma cells); experiment: Wnt activity screening assay, Sp5-Luc reporter gene in SW480 cells; details: Homo sapiens; for EC50: Sp5-Luc reporter, SW480 cells, overnight incubation; for inhibition at 10 µM: SW480, read-out: percent inhibition at 10 μM
Text: The screening assay for Wnt activity is described as follows. Reporter cell lines can be generated by stably transducing cancer cell lines (e.g., colon cancer) or primary cells (e.g., IEC-6 intestinal cells) with a lentiviral construct that includes a Wnt-responsive promoter driving expression of the firefly luciferase gene.
SW480 colon carcinoma cells were transduced with a lentiviral vector expressing luciferase with a human Sp5 promoter consisting of a sequence of eight TCF/LEF binding sites. SW480 cells stably expressing the Sp5-Luc reporter gene and a hygromycin resistance gene were selected by treatment with 150 μg/mL of hygromycin for 7 days. These stably transduced SW480 cells were expanded in cell culture and used for all further screening activities. […] For Sp5-Luc reporter gene assays, the cells were plated at 4,000 cells/well in 384-well plates with medium containing 1% fetal bovine serum and incubated overnight at 37° C. and 5% CO2. Following incubation, 20 μl of BrightGlo luminescence reagent (Promega) was added to each well of the 384-well assay plates. The plates were placed on an orbital shaker for 2 min and then luminescence was quantified using the Envision (Perkin Elmer) plate reader. Readings were normalized to DMSO only treated cells, and normalized activities were utilized for EC50 calculations using the dose-response log (inhibitor) vs. response−variable slope (four parameters) nonlinear regression feature available in GraphPad Prism 5.0 (or Dotmatics).

IL-6 = IL-6 inhibition in LPS-stimulated THP-1 cells (HTRF); details: Homo sapiens; for EC50: THP-1 cells, LPS 500 ng/mL, 22 hours, IL6 HTRF; for inhibition at 10 µM: THP-1, read-out: percent inhibition at 10 μM
Experimental: THP-1 cells were cultured in basal media with 1% FBS for 24 hours before the start of the assay. […] THP-1 cells were plated at 5000 cells/well in the 384-well plates and incubated at 37° C. for 2 h. 500 ng/mL of LPS was added after 2 hours and cells were incubated for another 22 hours at 37° C. Plates were spun in a centrifuge for 1 minute at […] and a mixture of anti-IL6 XL665, and anti-IL6 Cryptate diluted in reconstitution buffer (Cisbio Inc.) was added to each well. Following incubation for 3 hrs at room temperature, Homogeneous Time-Resolved Fluorescence (HTRF) was measured using the Envision (Perkin Elmer) at 665 nm and […]. The ratio of fluorescence at 665 nm to 620 nm was used as a readout for IL6 quantification. All samples were processed in duplicate. Readings were normalized to DMSO treated cells and normalized activities were utilized for EC50 calculations using the dose-response log (inhibitor) vs. response−variable slope (four parameters) nonlinear regression feature available in GraphPad Prism 5.0 (or Dotmatics).

SMILES | EC50 (SW480 colon cancer cells) | EC50 [2] | EC50 (IL-6) | EC50 [1] | inhibition at 10 µM (SW480 colon cancer cells) | inhibition at 10 µM [2] | inhibition at 10 µM (IL-6) | inhibition at 10 µM [1]
CC(C)C(=O)Nc1cncc(-c2cnc3[nH]nc(-c4cc5c(-c6ccoc6)cncc5[nH]4)c3c2)c1 [Compound 317, N-(5-(3-(4-(Furan-3-yl)-1H-pyrrolo[2,3-c]pyridin-2-yl)-1H-pyrazolo[3,4-b]pyridin-5-yl)pyridin-3-yl)isobutyramide] | 9.97 µM | 3.62 µM | 2.08 µM | 1.69 µM | – | – | – | –
O=C(Nc1cncc(-c2cnc3[nH]nc(-c4cc5c(-c6cccc(F)c6)cncc5[nH]4)c3c2)c1)C1CCC1 [Compound 21, N-(5-(3-(4-(3-Fluorophenyl)-1H-pyrrolo[2,3-c]pyridin-2-yl)-1H-pyrazolo [3,4-b]pyridin-5-yl)pyridin-3-yl)cyclobutanecarboxamide] | 0.586 µM | 0.532 µM | 0.324 µM | 0.31 µM | – | – | – | –
O=C(Nc1cncc(-c2cnc3[nH]nc(-c4cc5c(-c6cccc(F)c6)cncc5[nH]4)c3c2)c1)c1ccccc1 [Compound 11, N-(5-(3-(4-(3-Fluorophenyl)-1H-pyrrolo[2,3-c]pyridin-2-yl)-1H-pyrazolo [3,4-b]pyridin-5-yl)pyridin-3-yl)benzamide] | > 10 µM | > 10 µM | > 10 µM | 7.57 µM | 16.8% | 22.5% | 20.2% | –
O=C(Nc1cncc(-c2cnc3[nH]nc(-c4cc5c(-c6ccccc6F)cncc5[nH]4)c3c2)c1)C1CCCC1 [Compound 78, N-(5-(3-(4-(2-Fluorophenyl)-1H-pyrrolo[2,3-c]pyridin-2-yl)-1H-pyrazolo [3,4-b]pyridin-5-yl)pyridin-3-yl)cyclopentanecarboxamide] | 0.638 µM | 0.84 µM | 1.29 µM | 0.408 µM | – | – | – | –
Fc1cccc(-c2cncc3[nH]c(-c4n[nH]c5ncc(C6CCNCC6)cc45)cc23)c1 [Compound 505, 3-(4-(3-Fluorophenyl)-1H-pyrrolo[2,3-c]pyridin-2-yl)-5-(piperidin-4-yl)-1H-pyrazolo[3,4-b]pyridine] | > 10 µM | > 10 µM | 4.09 µM | > 10 µM | 7% | 17.5% | – | 0%
CCC(=O)Nc1cncc(-c2cnc3[nH]nc(-c4cc5c(-c6cccnc6)cncc5[nH]4)c3c2)c1 [Compound 85, N-(5-(3-(4-(Pyridin-3-yl)-1H-pyrrolo[2,3-c]pyridin-2-yl)-1H-pyrazolo[3,4-b]pyridin-5-yl)pyridin-3-yl)propionamide] | > 10 µM | > 10 µM | > 10 µM | > 10 µM | 10% | 9.3% | 34.1% | 44.2%
O=C(CC1CCNCC1)Nc1cncc(-c2cnc3[nH]nc(-c4cc5c(-c6cccnc6)cncc5[nH]4)c3c2)c1 [Compound 561, 2-(Piperidin-4-yl)-N-(5-(3-(4-(pyridin-3-yl)-1H-pyrrolo[2,3-c]pyridin-2-yl)-1H-pyrazolo[3,4-b]pyridin-5-yl)pyridin-3-yl)acetamide] | > 10 µM | > 10 µM | > 10 µM | 2.2 µM | 4.4% | 0% | 14.5% | –
c1ccc(-c2cnc3[nH]nc(-c4cc5ccncc5[nH]4)c3c2)nc1 [Compound 280, 5-(Pyridin-2-yl)-3-(1H-pyrrolo[2,3-c]pyridin-2-yl)-1H-pyrazolo[3,4-b]pyridine] | 1.15 µM | 3.87 µM | 3.75 µM | 1.59 µM | – | – | – | –

Now from value to molecule, other results behind:

EC50 (SW480 colon cancer cells) | EC50 [2] | EC50 (IL-6) | SMILES | EC50 [1] | inhibition at 10 µM (SW480 colon cancer cells) | inhibition at 10 µM [2] | inhibition at 10 µM (IL-6) | inhibition at 10 µM [1]
1.44 µM | 2.94 µM | 3.47 µM | O=C(Nc1cncc(-c2cnc3[nH]nc(-c4cc5c(-c6ccc(F)cc6)cncc5[nH]4)c3c2)c1)C1CCCCC1 [Compound 51, N-(5-(3-(4-(4-Fluorophenyl)-1H-pyrrolo[2,3-c]pyridin-2-yl)-1H-pyrazolo [3,4-b]pyridin-5-yl)pyridin-3-yl)cyclohexanecarboxamide] | 1.18 µM | – | – | – | –
3.17 µM | 4.98 µM | > 10 µM | c1ncc(-c2cnc3[nH]nc(-c4cc5c(N6CCCCC6)cncc5[nH]4)c3c2)cc1CN1CCCCC1 [Compound 183, 3-(4-(Piperidin-1-yl)-1H-pyrrolo[2,3-c]pyridin-2-yl)-5-(5-(piperidin-1-ylmethyl)pyridin-3-yl)-1H-pyrazolo[3,4-b]pyridine] | 2.4 µM | – | – | 20.3% | –
2.6 µM | 7.28 µM | > 10 µM | Fc1ccc(-c2cncc3[nH]c(-c4n[nH]c5ncc(-c6cncc(OC7CCCCC7)c6)cc45)cc23)cc1 [Compound 527, 5-(5-(Cyclohexyloxy)pyridin-3-yl)-3-(4-(4-fluorophenyl)-1H-pyrrolo[2,3-c]pyridin-2-yl)-1H-pyrazolo[3,4-b]pyridine] | 4.35 µM | – | – | 21.7% | –
> 10 µM | > 10 µM | > 10 µM | CS(=O)(=O)NCc1cc(F)cc(-c2cncc3[nH]c(-c4n[nH]c5ncc(-c6cncc(NC(=O)C7CCCCC7)c6)cc45)cc23)c1 [Compound 499, N-(5-(3-(4-(3-Fluoro-5-(methylsulfonamidomethyl)phenyl)-1H-pyrrolo[2,3-c]pyridin-2-yl)-1H-pyrazolo[3,4-b]pyridin-5-yl)pyridin-3-yl)cyclohexanecarboxamide] | > 10 µM | 9.9% | 12.3% | 32.4% | 28.5%
3.84 µM | > 10 µM | > 10 µM | O=C(Nc1cncc(-c2cnc3[nH]nc(-c4cc5c(N6CCCCC6)cncc5[nH]4)c3c2)c1)c1ccccc1 [Compound 179, N-(5-(3-(4-(Piperidin-1-yl)-1H-pyrrolo[2,3-c]pyridin-2-yl)-1H-pyrazolo[3,4-b]pyridin-5-yl)pyridin-3-yl)benzamide] | 4.59 µM | – | 45.1% | 36.1% | –
